Source: patent US10660877B2 (BRISTOL-MYERS SQUIBB COMPANY, priority 2016, dated 2020)
Where two headings read alike, the source gives them in different places.

Assays:
[1] = target: human TLR7 (Homo sapiens (Human), UniProt Q9NYK1); assay: TLR7 inhibition reporter assay (HEK-Blue cells, SEAP reporter, gardiquimod stimulation); assay type: cell-based; conditions: HEK-Blue cells overexpressing human TLR7, gardiquimod 7.5 μM
[2] = target: human TLR8 (Homo sapiens (Human), UniProt Q9NR97); assay: TLR8 inhibition reporter assay (HEK-Blue cells, SEAP reporter, R848 stimulation);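 also: compounds tested from 0.05 nM to 50 µM, 22 h at 37 °C, SEAP measured with HEK-Blue Detection, inhibition relative to agonist plus DMSO versus a known inhibitor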
human TLR8, sequence (Q9NR97 27-1041): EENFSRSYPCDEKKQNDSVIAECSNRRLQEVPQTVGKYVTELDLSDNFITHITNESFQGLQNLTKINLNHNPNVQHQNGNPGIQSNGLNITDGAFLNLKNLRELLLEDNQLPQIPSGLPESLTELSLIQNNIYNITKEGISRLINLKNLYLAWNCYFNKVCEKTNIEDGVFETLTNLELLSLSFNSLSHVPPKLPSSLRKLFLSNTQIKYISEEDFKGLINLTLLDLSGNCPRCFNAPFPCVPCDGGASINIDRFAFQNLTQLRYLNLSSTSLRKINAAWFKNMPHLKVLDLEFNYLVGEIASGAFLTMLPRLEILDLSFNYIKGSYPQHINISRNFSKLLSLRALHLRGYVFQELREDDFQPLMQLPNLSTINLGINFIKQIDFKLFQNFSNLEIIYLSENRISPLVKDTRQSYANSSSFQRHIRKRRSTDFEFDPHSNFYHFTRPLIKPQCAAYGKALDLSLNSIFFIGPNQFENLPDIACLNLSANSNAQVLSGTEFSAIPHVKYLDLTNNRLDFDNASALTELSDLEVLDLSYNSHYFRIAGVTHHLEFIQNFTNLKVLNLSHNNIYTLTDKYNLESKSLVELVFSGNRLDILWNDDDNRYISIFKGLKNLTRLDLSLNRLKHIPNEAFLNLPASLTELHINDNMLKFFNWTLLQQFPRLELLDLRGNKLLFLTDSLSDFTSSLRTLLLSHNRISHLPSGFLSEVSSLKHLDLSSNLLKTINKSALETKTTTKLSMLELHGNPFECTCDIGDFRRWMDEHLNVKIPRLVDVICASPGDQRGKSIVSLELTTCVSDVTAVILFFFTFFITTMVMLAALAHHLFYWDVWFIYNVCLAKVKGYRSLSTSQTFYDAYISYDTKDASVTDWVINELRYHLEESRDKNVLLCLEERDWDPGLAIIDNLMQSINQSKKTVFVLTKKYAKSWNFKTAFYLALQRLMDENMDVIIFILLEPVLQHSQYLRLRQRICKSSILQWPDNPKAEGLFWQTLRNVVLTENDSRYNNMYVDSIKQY

[3] = target: human TLR9 (Homo sapiens (Human), UniProt Q9NR96); assay: TLR9 inhibition reporter assay (HEK-Blue cells, SEAP reporter, ODN2006 stimulation);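 also: compounds tested over 0.05 nM to 50 µM, 22 h incubation, inhibition taken as SEAP signal drop from agonist plus DMSO wells toward a known inhibitor control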
human TLR9, sequence (Q9NR96 26-1032): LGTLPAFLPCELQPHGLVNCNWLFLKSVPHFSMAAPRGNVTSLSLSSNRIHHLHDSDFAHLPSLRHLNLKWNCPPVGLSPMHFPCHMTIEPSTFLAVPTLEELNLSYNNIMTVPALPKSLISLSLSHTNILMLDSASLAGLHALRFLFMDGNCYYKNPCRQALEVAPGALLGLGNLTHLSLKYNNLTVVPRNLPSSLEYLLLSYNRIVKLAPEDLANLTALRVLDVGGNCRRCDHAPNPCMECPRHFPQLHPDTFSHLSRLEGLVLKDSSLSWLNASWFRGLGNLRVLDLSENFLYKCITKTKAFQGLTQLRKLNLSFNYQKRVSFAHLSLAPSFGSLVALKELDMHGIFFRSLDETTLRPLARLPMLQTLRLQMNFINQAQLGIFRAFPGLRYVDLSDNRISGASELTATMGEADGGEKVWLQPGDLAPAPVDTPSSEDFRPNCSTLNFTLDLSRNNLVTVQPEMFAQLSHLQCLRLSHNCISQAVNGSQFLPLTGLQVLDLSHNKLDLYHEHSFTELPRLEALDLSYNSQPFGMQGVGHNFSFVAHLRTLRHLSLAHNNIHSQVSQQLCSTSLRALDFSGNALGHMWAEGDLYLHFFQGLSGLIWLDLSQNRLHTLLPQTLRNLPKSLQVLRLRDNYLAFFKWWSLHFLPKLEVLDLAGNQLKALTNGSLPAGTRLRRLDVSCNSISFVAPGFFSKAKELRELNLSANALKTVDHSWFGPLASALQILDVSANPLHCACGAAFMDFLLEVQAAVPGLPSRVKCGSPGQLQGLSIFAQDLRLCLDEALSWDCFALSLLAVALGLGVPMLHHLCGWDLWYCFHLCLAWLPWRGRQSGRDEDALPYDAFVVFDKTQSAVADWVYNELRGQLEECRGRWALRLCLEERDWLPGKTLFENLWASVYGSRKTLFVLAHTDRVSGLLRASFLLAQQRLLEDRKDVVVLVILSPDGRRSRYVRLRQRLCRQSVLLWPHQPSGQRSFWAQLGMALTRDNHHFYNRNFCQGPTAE

[4] = TLR8 IC50, HEK-Blue cells overexpressing human TLR8, R848 15.9 μM
[5] = TLR9 IC50, HEK-Blue cells overexpressing human TLR9, ODN2006 5 nM
[6] = read-out: TLR8 IC50, HEK-Blue cells overexpressing human TLR8, R848 15.9 μM
[7] = read-out: TLR9 IC50, HEK-Blue cells overexpressing human TLR9, ODN2006 5 nM

human TLR7, sequence (Q9NYK1 27-1049): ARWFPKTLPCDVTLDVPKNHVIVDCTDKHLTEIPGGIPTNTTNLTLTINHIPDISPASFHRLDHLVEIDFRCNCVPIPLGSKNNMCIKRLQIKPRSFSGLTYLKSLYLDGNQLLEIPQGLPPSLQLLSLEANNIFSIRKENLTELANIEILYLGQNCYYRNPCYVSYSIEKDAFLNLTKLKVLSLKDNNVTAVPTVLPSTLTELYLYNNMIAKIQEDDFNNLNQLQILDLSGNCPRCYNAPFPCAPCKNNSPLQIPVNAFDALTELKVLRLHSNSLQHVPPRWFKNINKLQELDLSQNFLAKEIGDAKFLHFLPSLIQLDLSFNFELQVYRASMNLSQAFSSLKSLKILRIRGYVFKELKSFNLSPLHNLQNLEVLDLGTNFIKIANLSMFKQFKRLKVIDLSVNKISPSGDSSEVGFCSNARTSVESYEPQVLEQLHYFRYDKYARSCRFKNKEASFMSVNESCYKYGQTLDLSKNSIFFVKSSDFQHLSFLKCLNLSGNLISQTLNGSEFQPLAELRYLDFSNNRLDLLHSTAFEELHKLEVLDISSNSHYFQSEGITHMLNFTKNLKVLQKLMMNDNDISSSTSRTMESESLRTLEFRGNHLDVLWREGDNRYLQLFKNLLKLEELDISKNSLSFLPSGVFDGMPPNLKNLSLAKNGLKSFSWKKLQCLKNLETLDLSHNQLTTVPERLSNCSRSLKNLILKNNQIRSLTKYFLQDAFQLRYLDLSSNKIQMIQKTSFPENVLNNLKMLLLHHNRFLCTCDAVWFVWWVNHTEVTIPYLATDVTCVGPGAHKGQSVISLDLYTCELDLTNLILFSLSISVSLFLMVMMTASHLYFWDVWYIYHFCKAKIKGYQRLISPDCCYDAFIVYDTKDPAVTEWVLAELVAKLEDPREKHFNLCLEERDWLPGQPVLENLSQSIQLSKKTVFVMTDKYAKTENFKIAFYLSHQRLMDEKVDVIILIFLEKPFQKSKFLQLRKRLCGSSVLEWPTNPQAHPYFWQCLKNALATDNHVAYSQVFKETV

| Structure (SMILES) | IC50 [1] [nM] | IC50 [2, 4] [nM] | IC50 [3, 5] [nM] | IC50 [2, 6] [nM] | IC50 [3, 7] [nM] |
| --- | --- | --- | --- | --- | --- |
| Cc1cc(-c2[nH]c3ccc(C4CCNCC4(F)F)cc3c2C(C)C)cc(C)n1 (single isomer, unassigned) [Example 489B, 5-(3,3-difluoropiperidin-4-yl)-2-(2,6-dimethylpyridin-4-yl)-3-isopropyl-1H-indole] | 1.3 | 20 | 1010 |  |  |
| CCc1c(-c2ccnc(N)c2)[nH]c2ccc([C@@H]3CCNC[C@@H]3F)cc12 [491-A] | 156 |  |  | 110 | 354 |
| CCc1c(-c2ccnc(N)c2)[nH]c2ccc([C@@H]3CCNC[C@H]3F)cc12 [491-B] | 526 |  |  | 34.9 | 324 |
| CCc1c(-c2cc(C)nc(C)c2)[nH]c2ccc(C3CCNCC3)cc12 [Example 2, 2-(2,6-dimethylpyridin-4-yl)-3-ethyl-5-(piperidin-4-yl)-1H-indole] | 4.7 |  |  | 11.2 | 248 |
| Cc1cc(-c2[nH]c3ccc(C4CCNCC4)cc3c2C(C)C)c(C(N)=O)cn1 [Example 15, 4-(3-isopropyl-5-(piperidin-4-yl)-1H-indol-2-yl)-6-methylnicotinamide] | 1540 |  |  | 448 | 26500 |
| Cc1cc(-c2[nH]c3ccc(C4CCNCC4)cc3c2C(C)C)c(F)cn1 [Example 16, 2-(5-fluoro-2-methylpyridin-4-yl)-3-isopropyl-5-(piperidin-4-yl)-1H-indole] | 1.5 |  |  | 1.4 | 2480 |
| CC(C)c1c(-c2cc(F)ncc2Cl)[nH]c2ccc(C3CCNCC3)cc12 [Example 18, 2-(5-chloro-2-fluoropyridin-4-yl)-3-isopropyl-5-(piperidin-4-yl)-1H-indole] | 177 |  |  | 47 | 6270 |
| CC(C)c1c(-c2c(Cl)cncc2Cl)[nH]c2ccc(C3CCNCC3)cc12 [Example 20, 2-(3,5-dichloropyridin-4-yl)-3-isopropyl-5-(piperidin-4-yl)-1H-indole] | 1660 |  |  | 128 | 7790 |
| CC(C)c1c(-c2cc(Cl)ncc2C#N)[nH]c2ccc(C3CCNCC3)cc12 [Example 26, 6-chloro-4-(3-isopropyl-5-(piperidin-4-yl)-1H-indol-2-yl)nicotinonitrile] | 199 |  |  | 481 | 6320 |
| Cc1cc(-c2[nH]c3ccc(C4CCNCC4)cc3c2C(C)C)c([N+](=O)[O-])c(C)n1 [Example 27, 2-(2,6-dimethyl-3-nitropyridin-4-yl)-3-isopropyl-5-(piperidin-4-yl)-1H-indole] | 15.1 |  |  | 8.9 | 2970 |
| Cc1cnc(F)cc1-c1[nH]c2ccc(C3CCNCC3)cc2c1C(C)C [Example 28, 2-(2-fluoro-5-methylpyridin-4-yl)-3-isopropyl-5-(piperidin-4-yl)-1H-indole] | 7.2 |  |  | 33.9 | 3430 |
| Cc1cc(-c2[nH]c3ccc(C4CCNCC4)cc3c2C(C)C)c(N)c(C)n1 [Example 29, 4-(3-isopropyl-5-(piperidin-4-yl)-1H-indol-2-yl)-2,6-dimethylpyridin-3-amine] | 2.1 |  |  | 18.8 | 264 |
| Cc1cc(-c2[nH]c3ccc(C4CCNCC4)cc3c2C(C)C)c(C#N)c(NCC2CC2)n1 [Example 32, 2-((cyclopropylmethyl)amino)-4-(3-isopropyl-5-(piperidin-4-yl)-1H-indol-2-yl)-6-methylnicotinonitrile] | 4070 |  |  | 3680 | 3990 |
| CC(C)c1c(-c2ccnc(C#N)c2C(F)(F)F)[nH]c2ccc(C3CCNCC3)cc12 [Example 33, 4-(3-isopropyl-5-(piperidin-4-yl)-1H-indol-2-yl)-3-(trifluoromethyl)picolinonitrile] | 2070 |  |  | 230 | 5650 |
| CC(=O)Nc1cnc(C)cc1-c1[nH]c2ccc(C3CCNCC3)cc2c1C(C)C [Example 34, N-(4-(3-isopropyl-5-(piperidin-4-yl)-1H-indol-2-yl)-6-methylpyridin-3-yl)acetamide] | 1270 |  |  | 160 | 4610 |
| CC(C)c1c(-c2ccncc2NC(=O)C(C)(C)C)[nH]c2ccc(C3CCNCC3)cc12 [Example 37, N-(4-(3-isopropyl-5-(piperidin-4-yl)-1H-indol-2-yl)pyridin-3-yl) pivalamide] | 42700 |  |  | 635 | 6100 |
| Cc1cc(-c2[nH]c3ccc(C4CCNCC4)cc3c2C(C)C)c(C)c(C)n1 [Example 39, 3-isopropyl-5-(piperidin-4-yl)-2-(2,3,6-trimethylpyridin-4-yl)-1H-indole] | 7.2 |  |  | 22.3 | 955 |

Other lines, results leading:

| IC50 [1] [nM] | IC50 [2, 4] [nM] | IC50 [3, 5] [nM] | IC50 [2, 6] [nM] | IC50 [3, 7] [nM] | Structure (SMILES) |
| --- | --- | --- | --- | --- | --- |
| 1.8 |  |  | 3.8 | 1890 | Cc1cc(-c2[nH]c3ccc(C4CCNCC4)cc3c2C(C)C)cc(F)n1 [Example 3, 2-(2-fluoro-6-methylpyridin-4-yl)-3-isopropyl-5-(piperidin-4-yl)-1H-indole] |
| 6.1 |  |  | 3.9 | 946 | Cc1cc(-c2[nH]c3ccc(C4CCNCC4)cc3c2C(C)C)ccn1 [Example 5, 3-isopropyl-2-(2-methylpyridin-4-yl)-5-(piperidin-4-yl)-1H-indole] |
| 590 |  |  | 195 | 3540 | CC(C)c1c(-c2ccncc2F)[nH]c2ccc(C3CCNCC3)cc12 [Example 7, 2-(3-fluoropyridin-4-yl)-3-isopropyl-5-(piperidin-4-yl)-1H-indole] |
| 34.4 |  |  | 28.8 | 160 | CC(C)c1c(-c2ccnc(N)c2)[nH]c2ccc(C3CCNCC3)cc12 [Example 8, 4-(3-isopropyl-5-(piperidin-4-yl)-1H-indol-2-yl)pyridin-2-amine] |
| 75.1 |  |  | 22.1 | 562 | Cc1cnc(N)cc1-c1[nH]c2ccc(C3CCNCC3)cc2c1C(C)C [Example 9, 4-(3-isopropyl-5-(piperidin-4-yl)-1H-indol-2-yl)-5-methylpyridin-2-amine] |
| 5.1 |  |  | 6.3 | 354 | Cc1cc(-c2[nH]c3ccc(C4CCNCC4)cc3c2C(C)C)c(N)cn1 [Example 10, 4-(3-isopropyl-5-(piperidin-4-yl)-1H-indol-2-yl)-6-methylpyridin-3-amine] |
| 358 | 90.6 | 309 |  |  | Cc1c(-c2[nH]c3ccc(C4CCNCC4)cc3c2C(C)C)ccnc1N [Example 11, 4-(3-isopropyl-5-(piperidin-4-yl)-1H-indol-2-yl)-3-methylpyridin-2-amine] |
| 19.8 |  |  | 39.7 | 362 | Cc1cc(-c2[nH]c3ccc(C4CCNCC4)cc3c2C(C)C)cc(N)n1 [Example 12, 4-(3-isopropyl-5-(piperidin-4-yl)-1H-indol-2-yl)-6-methylpyridin-2-amine] |
| 16.1 |  |  | 90 | 419 | Cc1nccc(-c2[nH]c3ccc(C4CCNCC4)cc3c2C(C)C)c1N [Example 13, 4-(3-isopropyl-5-(piperidin-4-yl)-1H-indol-2-yl)-2-methylpyridin-3-amine] |
| 423 |  |  | 187 | 1200 | CC(C)c1c(-c2ccnc(CN)c2)[nH]c2ccc(C3CCNCC3)cc12 [Example 14, (4-(3-isopropyl-5-(piperidin-4-yl)-1H-indol-2-yl)pyridin-2-yl)methanamine] |
| 1.5 |  |  | 4 | 2980 | CC(C)c1c(-c2ccnc(Cl)c2F)[nH]c2ccc(C3CCNCC3)cc12 [Example 21, 2-(2-chloro-3-fluoropyridin-4-yl)-3-isopropyl-5-(piperidin-4-yl)-1H-indole] |
| 80.6 |  |  | 75 | 1500 | CC(C)c1c(-c2ccnc(CO)c2)[nH]c2ccc(C3CCNCC3)cc12 [Example 22, (4-(3-isopropyl-5-(piperidin-4-yl)-1H-indol-2-yl)pyridin-2-yl)methanol] |
| 97 |  |  | 32.3 | 8790 | Cc1cnccc1-c1[nH]c2ccc(C3CCNCC3)cc2c1C(C)C [Example 23, 3-isopropyl-2-(3-methylpyridin-4-yl)-5-(piperidin-4-yl)-1H-indole] |
| 1480 |  |  | 704 | 1690 | CC(C)c1c(-c2ccnc(N(C)C)c2)[nH]c2ccc(C3CCNCC3)cc12 [Example 24, 4-(3-isopropyl-5-(piperidin-4-yl)-1H-indol-2-yl)-N,N-dimethylpyridin-2-amine] |
| 28.5 |  |  | 22.3 | 708 | Cc1nccc(-c2[nH]c3ccc(C4CCNCC4)cc3c2C(C)C)c1C [Example 30, 2-(2,3-dimethylpyridin-4-yl)-3-isopropyl-5-(piperidin-4-yl)-1H-indole] |
| 2.6 |  |  | 1 | 963 | Cc1cc(-c2[nH]c3ccc(C4CCNCC4)cc3c2C(C)C)c(C)cn1 [Example 31, 2-(2,5-dimethylpyridin-4-yl)-3-isopropyl-5-(piperidin-4-yl)-1H-indole] |
| 26.7 |  |  | 28.8 | 4080 | Cc1c(-c2[nH]c3ccc(C4CCNCC4)cc3c2C(C)C)ccnc1Cl [Example 35, 2-(2-chloro-3-methylpyridin-4-yl)-3-isopropyl-5-(piperidin-4-yl)-1H-indole] |
| 1270 |  |  | 454 | 4870 | CC(C)c1c(-c2ccnc(Cl)c2C#N)[nH]c2ccc(C3CCNCC3)cc12 [Example 36, 2-chloro-4-(3-isopropyl-5-(piperidin-4-yl)-1H-indol-2-yl)nicotinonitrile] |
